The numbers were not newly measured in US20210181182A1, “METHOD FOR IDENTIFICATION OF PERTURBAGENS OF PARTICULAR BIOLOGICAL PROCESSES AND CELL SYSTEMS WITHIN LIVING CELLS” (priority 2018, published 2021), which cites them from elsewhere.

Structures can show the parent of a compound that is named as a salt. Marks after values point to notes of the source that are not given here.

One data set concerns mitochondria membrane potential. The conditions noted are these: HepG2, 1-hour incubation at concentrations below 60 μM; cited from earlier work.
Consider `C[C@@]1(c2ccc(Oc3ccccc3)cc2)OC(=O)N(Nc2ccccc2)C1=O` (racemic) [Famoxadone], for which the “MMP assay hitCall” value is listed as 1.

As for `COC(C=C(C)CCC=C(C)C)OC` [1,1-Dimethoxy-3,7-dimethylocta-2,6-diene], the “MMP assay hitCall” value is 0.

On to `CCC(=O)C=Cc1ccc(OC)cc1` [1-(4-Methoxyphenyl)-1-pentene-3-one], for which the “MMP assay hitCall” value is on record as 0.

As for `Fc1cccc(Cl)c1CCl` [1-Chloro-2-(chloromethyl)-3-fluorobenzene], the “MMP assay hitCall” value is 0.

In the case of `CC(C)(C)C(=O)CCl` [1-Chloro-3,3-dimethyl-butan-2-one], the “MMP assay hitCall” value is reported as 0.

In the case of `CCCCCCCCCCCCN1CCCC1=O` [1-Dodecyl-2-pyrrolidinone], the “MMP assay hitCall” value is recorded as 0.

Turning to `C=CC(O)CCCCC` (stereo not shown) [1-Octen-3-ol], the “MMP assay hitCall” value is 0.

For `c1cc(C(c2ccc(OCC3CO3)cc2)c2ccc(OCC3CO3)cc2)ccc1OCC1CO1` (stereo not shown) [2,2′,2″-[Methanetriyltris(benzene-4,1-diyloxymethanediyl)]trioxirane], the “MMP assay hitCall” value was 0.

`Oc1c(Br)cc(Br)cc1Br` [2,4,6-Tribromophenol]: the “MMP assay hitCall” value is listed as 1.

For `CC=CC=CCOC(=O)C(C)C` [2,4-Hexadienyl isobutyrate], the “MMP assay hitCall” value is recorded as 0.

With `CCC(C)(C)c1cc(O)c(C(C)(C)CC)cc1O` [2,5-Bis(2-methylbutan-2-yl)benzene-1,4-diol], the “MMP assay hitCall” value is given as 1.

Turning to `CC(C)(C)c1cc(O)c(C(C)(C)C)cc1O` [2,5-Di-tert-butylbenzene-1,4-diol], the “MMP assay hitCall” value was 1.

Turning to `CC(C)(C)c1cc([N+](=O)[O-])cc(C(C)(C)C)c1O` [2,6-Di-tert-butyl-4-nitrophenol], the “MMP assay hitCall” value was 1.

For the molecule `C=CC(=O)OCCOCCOCC` [2-(2-Ethoxyethoxy)ethyl prop-2-enoate], the “MMP assay hitCall” value is reported as 0.

Consider `Cl.ClCc1ccccn1` [2-(Chloromethyl)pyridine hydrochloride], for which the “MMP assay hitCall” value is on record as 0.

With `Oc1ccc(-c2ccccc2)cc1Cl` [2-Chloro-4-phenylphenol], the “MMP assay hitCall” value is 1.

Turning to `O=C(CCl)Nc1ccccc1` [2-Chloro-N-phenylacetamide], the “MMP assay hitCall” value was 0.

For the molecule `O=C(CCl)c1ccccc1` [2-Chloroacetophenone], the “MMP assay hitCall” value is given as 0*.

As to `C=CC(=O)OCCC#N` [2-Cyanoethyl prop-2-enoate], the “MMP assay hitCall” value was 0.

With `C=CC(=O)OCCO` [2-Hydroxyethyl acrylate], the “MMP assay hitCall” value is listed as 0*.

For `COc1cc(C)ccc1O` [2-Methoxy-4-methylphenol], the “MMP assay hitCall” value was 0.

As for `COc1ccc(O)c(C(C)(C)C)c1` [2-tert-Butyl-4-methoxyphenol], the “MMP assay hitCall” value was 1.

Turning to `N#Cc1nc(Cl)c(Cl)c(Cl)c1Cl` [3,4,5,6-Tetrachloro-2-pyridinecarbonitrile], the “MMP assay hitCall” value is recorded as 1.

With `CC(C)=CCCC(C)=CC=O` [3,7-Dimethyl-2,6-octadienal], the “MMP assay hitCall” value is 0.

Consider `Cl.ClCc1cccnc1` [3-(Chloromethyl)pyridine hydrochloride], for which the “MMP assay hitCall” value was 0.

Regarding `Oc1ccc2c(c1)-c1ccccc1C2` [3-Hydroxyfluorene], the “MMP assay hitCall” value is on record as 1.

On to `CC(C)CC(C)(c1ccc(O)cc1)c1ccc(O)cc1` [4,4′-(4-Methylpentane-2,2-diyl)diphenol], for which the “MMP assay hitCall” value is listed as 1.

As for `Cl.Nc1ccc(-c2ccccc2)cc1` [4-Biphenylamine hydrochloride], the “MMP assay hitCall” value was 0.

Take `C=Cc1ccc(OC(C)=O)cc1` [4-Ethenylphenyl acetate]: the “MMP assay hitCall” value is recorded as 0.

As for `CCCCCCc1ccc(O)cc1O` [4-Hexylresorcinol], the “MMP assay hitCall” value was 1.

Consider `CCCCCCCCCc1ccc(O)cc1` [4-Nonylphenol], for which the “MMP assay hitCall” value is on record as 1.

As for `CCCc1ccc(O)cc1` [4-Propylphenol], the “MMP assay hitCall” value is on record as 1.

With `CCc1cccc(CC)c1N(COC)C(=O)CCl` [Alachlor], the “MMP assay hitCall” value is on record as 0*.

With `C=CCC1=C(C)C(OC(=O)C2C(C=C(C)C)C2(C)C)CC1=O` (stereo not shown) [Allethrin], the “MMP assay hitCall” value is 1.

As for `Clc1nc(Cl)nc(Nc2ccccc2Cl)n1` [Anilazine], the “MMP assay hitCall” value is 0.

Consider `CNC(=O)Oc1cccc2c1OC(C)(C)O2` [Bendiocarb], for which the “MMP assay hitCall” value was 0.

For the molecule `CCCCN(CC)c1c([N+](=O)[O-])cc(C(F)(F)F)cc1[N+](=O)[O-]` [Benfluralin], the “MMP assay hitCall” value was 0.

`CC1COc2ccccc2N1C(=O)C(Cl)Cl` (stereo not shown) [Benoxacor]: the “MMP assay hitCall” value is 0.

As to `CCCCCCCCCCCC[N+](C)(C)Cc1ccccc1.[Cl-]` [Benzyldimethyldodecylammonium chloride], the “MMP assay hitCall” value is recorded as 1.

For `O=c1[nH]c2ccc([S+]([O-])CCN3CCC(Cc4ccc(F)cc4)CC3)cc2o1` (stereo not shown) [Besonprodil], the “MMP assay hitCall” value is reported as 0.

Turning to `COc1ccc(-c2ccccc2)cc1NNC(=O)OC(C)C` [Bifenazate], the “MMP assay hitCall” value was 1.

Regarding `CCC(C)c1cc([N+](=O)[O-])cc([N+](=O)[O-])c1OC(=O)C=C(C)C` (stereo not shown) [Binapacryl], the “MMP assay hitCall” value is reported as 1.

In the case of `c1cc(OCC2CO2)ccc1Cc1ccc(OCC2CO2)cc1` (stereo not shown) [Bis[4-(glycidyloxy)phenyl]methane], the “MMP assay hitCall” value is on record as 0.

`CC(C)(c1ccc(O)cc1)c1ccc(O)cc1` [Bisphenol A]: the “MMP assay hitCall” value is 1.

`Oc1c(Cl)cc(Cl)cc1Sc1cc(Cl)cc(Cl)c1O` [Bithionol, reference compound]: the “MMP assay hitCall” value is given as 1.

As to `N#Cc1cc(Br)c(O)c(Br)c1` [Bromoxynil], the “MMP assay hitCall” value is reported as 1.

For `CCC(C)Nc1c([N+](=O)[O-])cc(C(C)(C)C)cc1[N+](=O)[O-]` (stereo not shown) [Butralin], the “MMP assay hitCall” value is listed as 0.

For `CCOP(=S)(OCC)OC(Cl)C(Cl)(Cl)Cl` (stereo not shown) [Chlorethoxyfos], the “MMP assay hitCall” value was 1.

Regarding `CCOCn1c(-c2ccc(Cl)cc2)c(C#N)c(Br)c1C(F)(F)F` [Chlorfenapyr], the “MMP assay hitCall” value is recorded as 1.

Turning to `Oc1ccc(Cl)cc1Cc1ccccc1` [Clorophene], the “MMP assay hitCall” value is reported as 1.

In the case of `Cc1ccc(-c2c(Cl)nc(C#N)n2S(=O)(=O)N(C)C)cc1` [Cyazofamid], the “MMP assay hitCall” value is recorded as 1.

In the case of `Cc1cc(C2CC2)nc(Nc2ccccc2)n1` [Cyprodinil], the “MMP assay hitCall” value is on record as 0.

On to `CC(=O)O[C@]1(C(C)=O)CC[C@H]2[C@@H]3C=C(Cl)C4=CC(=O)[C@@H]5C[C@@H]5[C@]4(C)[C@H]3CC[C@@]21C` [Cyproterone acetate, reference compound], for which the “MMP assay hitCall” value is listed as 1.

In the case of `CN1CSC(=S)N(C)C1` [Dazomet], the “MMP assay hitCall” value is listed as 0.

In the case of `CCOC(=O)Nc1cccc(OC(=O)Nc2ccccc2)c1` [Desmedipham], the “MMP assay hitCall” value is on record as 1.

With `CCCCOC(=O)c1ccccc1C(=O)OCCCC` [Dibutyl phthalate], the “MMP assay hitCall” value is given as 0*.

`COP(=O)(OC)OC=C(Cl)Cl` [Dichlorvos]: the “MMP assay hitCall” value was 0*.

Take `O=C(OC1CCCCC1)c1ccccc1C(=O)OC1CCCCC1` [Dicyclohexyl phthalate]: the “MMP assay hitCall” value is recorded as 1.

As to `C(=NC1CCCCC1)=NC1CCCCC1` [Dicyclohexylcarbodiimide], the “MMP assay hitCall” value is given as 0*.

For the molecule `CCCCCCCCCC[N+](C)(C)CCCCCCCCCC.[Cl-]` [Didecyldimethylammonium chloride], the “MMP assay hitCall” value is on record as 1.

With `CCOC(=O)/C=C\C(=O)OCC` [Diethyl maleate], the “MMP assay hitCall” value was 0*.

`CC1COC(Cn2cncn2)(c2ccc(Oc3ccc(Cl)cc3)cc2Cl)O1` (stereo not shown) [Difenoconazole]: the “MMP assay hitCall” value is 1.

With `COc1ccc(C(=CC(=O)N2CCOCC2)c2ccc(Cl)cc2)cc1OC` [Dimethomorph], the “MMP assay hitCall” value is listed as 0.

Take `COC(=O)/C=C\C(=O)OC` [Dimethyl maleate]: the “MMP assay hitCall” value was 0.

In the case of `CCC(C)c1cc([N+](=O)[O-])cc([N+](=O)[O-])c1O` (stereo not shown) [Dinoseb], the “MMP assay hitCall” value was 1.

Turning to `c1ccc(Nc2ccccc2)cc1` [Diphenylamine], the “MMP assay hitCall” value is recorded as 1.

As for `C=CCOC(=O)/C=C\C(=O)OCC=C` [Diprop-2-en-1-yl (2Z)-but-2-enedioate], the “MMP assay hitCall” value was 0.

As to `CCCCCCCCCCCC[N+](C)(C)C.[Br-]` [Dodecyltrimethylammonium bromide], the “MMP assay hitCall” value is recorded as 1.

On to `CCCCCCCCCCCC[N+](C)(C)C.[Cl-]` [Dodecyltrimethylammonium chloride], for which the “MMP assay hitCall” value is 0*.

As to `CN1CCN(c2ccccc2/C=C2\SCCN(c3ccc(Cl)c(Cl)c3)C2=O)CC1` [Elzasonan], the “MMP assay hitCall” value is given as 0.

`CCOC1Oc2ccc(OS(C)(=O)=O)cc2C1(C)C` (stereo not shown) [Ethofumesate]: the “MMP assay hitCall” value is on record as 0.

`CCOc1cc(C(C)(C)C)ccc1C1COC(c2c(F)cccc2F)=N1` (stereo not shown) [Etoxazole]: the “MMP assay hitCall” value was 1.

On to `C=CCc1ccc(O)c(OC)c1` [Eugenol], for which the “MMP assay hitCall” value is given as 0*.

As to `C=CCc1ccc(OC(=O)Cc2ccccc2)c(OC)c1` [Eugenyl phenylacetate], the “MMP assay hitCall” value is 0.

Regarding `CSC1=N[C@@](C)(c2ccccc2)C(=O)N1Nc1ccccc1` [Fenamidone], the “MMP assay hitCall” value is given as 1.

As to `CC(C)(C)c1ccc(CCOc2ncnc3ccccc23)cc1` [Fenazaquin], the “MMP assay hitCall” value is recorded as 0*.

The same data set, now with this note: cited from earlier work.
As for `Nc1ccc(-c2ccc(N)c(N)c2)cc1N` [3,3′-Diaminobenzidine], the “MMP assay hitCall” value is reported as 1.

In the case of `Nc1ccc(N=Nc2ccccc2)cc1` [4-Aminoazobenzene], the “MMP assay hitCall” value is listed as 0.

Turning to `CCN(CC)c1ccc2c(C)cc(=O)oc2c1` [7-Diethylamino-4-methylcoumarin], the “MMP assay hitCall” value is recorded as 1.

In the case of `Oc1cccc2cccnc12` [8-Hydroxyquinoline], the “MMP assay hitCall” value is recorded as 0.

On to `Oc1ccc(C(c2ccc(O)cc2)(C(F)(F)F)C(F)(F)F)cc1` [Bisphenol AF], for which the “MMP assay hitCall” value is 1.

In the case of `CN(C)NC(=O)CCC(=O)O` [Daminozide], the “MMP assay hitCall” value was 0.
